≈ marks a conversion by molar mass, not a printed value. Where a name gives a salt, the structure may show the parent alone.

The subject of the first assay is E. coli NCTC 10418. Nature of the assay: MIC against E. coli NCTC 10418. Format: cell-based. The settings on record: Escherichia coli, NCTC 10418 / NCTC 1048; E. coli NCTC 1048 as printed in Example 7; read-out: MIC against E. coli NCTC 1048.
A word on the MIC: it is the lowest concentration found to suppress growth. Regarding `CCn1c(C)c(C(=O)N[C@@H](C(=O)N[C@@H]2C(=O)N3[C@@H]2SC(C)(C)[C@@H]3C(=O)O)c2ccccc2)c(=O)n1-c1ccc(N)cc1` [Example 7, 6β-[D2,-(2-Ethyl-3-methyl-1-(4-aminophenyl)-3-pyrazolin-5-one-4-carbonylamino)-2-phenyl]acetamido penicillanic acid (sodium salt)], the MIC was determined as 50 µg/mL.

Staying with this assay, now noted: Escherichia coli, NCTC10418; E. coli NCTC 10418; unit as printed in Example 1; read-out: MIC against E. coli NCTC 10418.
Consider `Cc1c(C(=O)N[C@@H](C(=O)N[C@@H]2C(=O)N3[C@@H]2SC(C)(C)[C@@H]3C(=O)O)c2ccccc2)c(=O)n(-c2ccccc2)n1C` [Example 1, 6β-[D,2-(2,3-dimethyl-1-phenyl-3-pyrazolin-5-one-4-carbonylamino)-2-phenyl]acetamido penicillanic acid, sodium salt], for which the MIC is 5 µg/mL.

Staying with this assay, now noted: Escherichia coli, NCTC10418; read-out: MIC against E. coli NCTC 10418.
Take `Cc1c(C(=O)N[C@@H](C(=O)N[C@@H]2C(=O)N3[C@@H]2SC(C)(C)[C@@H]3C(=O)O)c2ccc(O)cc2)c(=O)n(-c2ccccc2)n1C` [Example 2, 6β-[D,2-(2,3-dimethyl-1-phenyl-3-pyrazolin-5-one-4-carbonylamino)-2-(4-hydroxyphenyl)]acetamido penicillanic acid, sodium salt]: the MIC was 12.5 µg/mL.
On the same count and under the same terms, under `CC1(C)S[C@@H]2[C@H](NC(=O)[C@H](NC(=O)c3cn(-c4ccccc4)[nH]c3=O)c3ccccc3)C(=O)N2[C@H]1C(=O)O` [Example 3, 6β-[D,2-(2-phenyl-3-pyrazolin-5-one-4-carbonylamino)-2-phenyl]acetamido penicillanic acid, sodium salt] stands 2.5 µg/mL.
The same measure, in the same setting: under `CC1(C)S[C@@H]2[C@H](NC(=O)[C@H](NC(=O)c3cnn(-c4ccccc4)c3O)c3ccccc3)C(=O)N2[C@H]1C(=O)O` [Example 4, 6β-[D,2-(2H,3-Hydroxy-2-phenylpyrazole-4-carbonylamino)-2-phenyl]acetamido penicillanic acid (sodium salt)] stands 2 µg/mL; under `COc1c(C(=O)N[C@@H](C(=O)N[C@@H]2C(=O)N3[C@@H]2SC(C)(C)[C@@H]3C(=O)O)c2ccccc2)cnn1-c1ccccc1` [Example 5, 6β-[D,2-(2H,3-Methoxy-2-phenyl-pyrazole-4-carbonylamino)-2-phenyl]acetamido penicillanic acid, sodium salt], 12.5 µg/mL.
The same measure, in the same setting: the value for `CCn1c(C)c(C(=O)N[C@@H](C(=O)N[C@@H]2C(=O)N3[C@@H]2SC(C)(C)[C@@H]3C(=O)O)c2ccccc2)c(=O)n1-c1ccc([N+](=O)[O-])cc1` [Example 6, 6β-[D,2-(2-Ethyl-3-methyl-1-(4-nitrophenyl)-3-pyrazolin-5-one-4-carbonylamino)-2-phenyl]acetamido penicillanic acid] was 25 µg/mL (≈ 40.2 µM).
On to `Cn1cc(C(=O)N[C@@H](C(=O)N[C@@H]2C(=O)N3[C@@H]2SC(C)(C)[C@@H]3C(=O)O)c2ccccc2)c(=O)n1-c1ccccc1` [Example 8, 6β-[D,2-(2-Methyl-1-phenyl-3-pyrazolin-5-one-4-carbonylamino)-2-phenyl]acetamido penicillanic acid (sodium salt)], for which the MIC was 10 µg/mL.
Consider `Cn1cc(C(=O)N[C@@H](C(=O)N[C@@H]2C(=O)N3[C@@H]2SC(C)(C)[C@@H]3C(=O)O)c2ccccc2)c(=O)n1Cc1ccccc1` [Example 9, 6β-[D,2-(1-Benzyl-2-methyl-3-pyrazolin-5-one-4-carbonylamino)-2-phenyl]acetamido penicillanic acid (sodium salt)], for which the MIC came out at 5 µg/mL.
As for `Cc1c(C(=O)N[C@@H](C(=O)N[C@@H]2C(=O)N3[C@@H]2SC(C)(C)[C@@H]3C(=O)O)c2ccccc2)c(=O)n(-c2ccc(Br)cc2)n1C` [Example 10, 6β-[D,2-(2,3-Dimethyl-1-(4-bromophenyl)-3-pyrazolin-5-one-4-carbonylamino)-2-phenyl]acetamido penicillanic acid (sodium salt)], the minimum inhibitory concentration (MIC) was 5 µg/mL.
Same read-out and setting: the value for `CC1(C)S[C@@H]2[C@H](NC(=O)[C@H](NC(=O)c3cn(-c4ccc([N+](=O)[O-])cc4)[nH]c3=O)c3ccccc3)C(=O)N2[C@H]1C(=O)O` [Example 11, 6β-[D,2-(2-(4-Nitrophenyl)-3-pyrazolin-5-one-4-carbonylamino)-2-phenyl] acetamido penicillanic acid (sodium salt)] was 2.5 µg/mL; that for `CC1(C)S[C@@H]2[C@H](NC(=O)[C@H](NC(=O)c3cn(-c4ccc(N)cc4)[nH]c3=O)c3ccccc3)C(=O)N2[C@H]1C(=O)O` [Example 12, 6β-[D,2-(2-(4-Aminophenyl)-3-pyrazolin-5-one-4-carbonylamino)-2-phenyl] acetamido penicillanic acid (sodium salt)] was 5 µg/mL.
For the compound `CC1(C)S[C@@H]2[C@H](NC(=O)[C@H](NC(=O)c3cn(-c4ccc([N+](=O)[O-])cc4)[nH]c3=O)c3ccc(O)cc3)C(=O)N2[C@H]1C(=O)O` [Example 13, 6β-[D,2-(2-(4-Nitrophenyl)-3-pyrazolin-5-one-4-carbonylamino)-2-(4-hydroxyphenyl)] acetamido penicillanic acid (sodium salt)], the MIC worked out at 5 µg/mL.
On to `CC1(C)S[C@@H]2[C@H](NC(=O)[C@H](NC(=O)c3cn(-c4ccc(N)cc4)[nH]c3=O)c3ccc(O)cc3)C(=O)N2[C@H]1C(=O)O` [Example 14, 6β-[D,2-(2-(4-Aminophenyl)-3-pyrazolin-5-one-4-carbonylamino)-2-(4-hydroxyphenyl)] acetamido penicillanic acid (sodium salt)], for which the MIC came out at 2.5 µg/mL.
Regarding `CC1(C)S[C@@H]2[C@H](NC(=O)[C@H](NC(=O)c3cn(-c4ccc(O)cc4)[nH]c3=O)c3ccccc3)C(=O)N2[C@H]1C(=O)O` [Example 15, 6β-[D,2-(2-(4-Hydroxyphenyl)-3-pyrazolin-5-one-4-carbonylamino)-2-phenyl] acetamido penicillanic acid (sodium salt)], the MIC came to 2 µg/mL.
With `Cc1c(C(=O)N[C@@H](C(=O)N[C@@H]2C(=O)N3[C@@H]2SC(C)(C)[C@@H]3C(=O)O)c2ccccc2)c(=O)[nH]n1-c1ccccc1` [Example 16, 6β-[D,2-(3-Methyl-2-phenyl-3-pyrazolin-5-one-4-carbonyl-amino)-2-phenyl]acetamido penicillanic acid, sodium salt], the MIC amounted to 25 µg/mL.
For `CC1(C)S[C@@H]2[C@H](NC(=O)[C@H](NC(=O)c3cn(-c4ccc(Br)cc4)[nH]c3=O)c3ccccc3)C(=O)N2[C@H]1C(=O)O` [Example 17, 6β-[D,2-(2-p-Bromophenyl-3-pyrazolin-5-one-4-carbonylamino)-2-phenyl]acetamido penicillanic acid, sodium salt], the MIC amounted to 1 µg/mL.
Consider `CC(=O)OCC1=C(C(=O)O)N2C(=O)[C@@H](NC(=O)[C@H](NC(=O)c3cn(-c4ccc([N+](=O)[O-])cc4)[nH]c3=O)c3ccccc3)[C@H]2SC1` [Example 18, 7β-[D,2-(2-p-Nitrophenyl-3-pyrazolin-5-one-4-carbonyl-amino)-2-phenyl]acetamido-3-acetoxymethylceph-3-em-4-carboxylic acid, sodium salt], for which the MIC was found to be 1 µg/mL.
Take `CC(=O)OCC1=C(C(=O)O)N2C(=O)[C@@H](NC(=O)[C@H](NC(=O)c3cn(-c4ccc(N)cc4)[nH]c3=O)c3ccccc3)[C@H]2SC1` [Example 19, 7β-[D,2-(2-p-Aminophenyl-3-pyrazolin-5-one-4-carbonylamino)-2-phenyl]acetamido-3-acetoxymethylceph-3-em-4-carboxylic acid, sodium salt]: the MIC was found to be 5 µg/mL.
As to `COc1ccc(-n2cc(C(=O)N[C@@H](C(=O)N[C@@H]3C(=O)N4[C@@H]3SC(C)(C)[C@@H]4C(=O)O)c3ccccc3)c(=O)[nH]2)cc1` [Example 20, 6β-[D,2-(2-[4-Methoxyphenyl]-pyrazol-3-in-5-one-4-carbonylamino)-2-phenyl]acetamido penicillanic acid, sodium salt], the MIC turned out to be 0.25 µg/mL.
On to `COc1nn(-c2ccc([N+](=O)[O-])cc2)cc1C(=O)N[C@@H](C(=O)N[C@@H]1C(=O)N2[C@@H]1SC(C)(C)[C@@H]2C(=O)O)c1ccccc1` [Example 21, 6-β-[D,2-([1H]-3-Methoxy-1-[4-nitrophenyl]pyrazole-4-carbonylamino)-2-phenyl]acetamido penicillanic acid, sodium salt], for which the MIC stood at 8 µg/mL.
On to `COc1nn(-c2ccc(N)cc2)cc1C(=O)N[C@@H](C(=O)N[C@@H]1C(=O)N2[C@@H]1SC(C)(C)[C@@H]2C(=O)O)c1ccccc1` [Example 22, 6β-[D,2-([1H]-1-(4-Aminophenyl)-3-methoxypyrazole-4-carbonylamino)-2-phenyl]acetamido penicillanic acid, sodium salt], for which the MIC came to 16 µg/mL.
On the same count and under the same terms, the value for `Cc1ccc(-n2cc(C(=O)N[C@@H](C(=O)N[C@@H]3C(=O)N4[C@@H]3SC(C)(C)[C@@H]4C(=O)O)c3ccccc3)c(=O)[nH]2)cc1` [Example 23, 6β-[D,2-(2-[4-Methylphenyl]pyrazol-3-in-5-one-4-carbonylamino)-2-phenyl] acetamido penicillanic acid, sodium salt] was 10 µg/mL.

The values are drawn from patent publication US4537886A, “β-lactam antibacterial agents and compositions containing them” (Beecham Group p.l.c., priority 1982, dated 1985).
